Experimental data reported in patent publication US8741836B2, “Polypeptides” (Novo Nordisk A/S, priority 2011, dated 2014).
Starred links: 1 amine or outer side, 2 acyl side, 3 side chain; linkers in the order of their positions; H or OH if unused. Positions of bridges follow the written chain, without caps; N, C: chain ends. Residues, ends and D or L forms follow the SMILES beside them. *: point of attachment. C20 diacid = O=C(O)CCCCCCCCCCCCCCCCCCC(=O)*; C18 diacid = O=C(O)CCCCCCCCCCCCCCCCC(=O)*; γGlu = O=C(O)[C@H](CCC(=O)[*:2])N[*:1]

Experiments:
ad libitum fed rat = assay: Assay (I) efficacy testing on appetite (food intake) using an ad libitum fed rat model; format: in vivo, Sprague Dawley (SD) rats; conditions: 3 nmol/kg
Summary of the method: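 Ad libitum fed Sprague Dawley rats, 200-250 g, singly housed on reversed light cycle, got one ip, po or sc dose of 0.01-3 mg/kg just before lights off; groups of 5-8 with vehicle control. Food intake recorded hourly for 7 h, then at 24 h and sometimes 48 h; Grubbs outliers excluded.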

[1] = Assay (III) ThT fibrillation assay for physical stability; format: physicochemical
Summary of the method: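 Freshly prepared, pH-adjusted formulations with 1 μM ThT incubated at 37 °C under 960 rpm orbital shaking (1 mm), fluorescence (ex 444, em 485 nm) read every 20 min. […] Peptide content before and after measured by reverse-phase HPLC against pramlintide standard.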

Row | Structure (SMILES) | Food intake reduction 0-24 h 3 nmol/kg (%) (ad libitum fed rat) | Food intake reduction 24-48 h 3 nmol/kg (%) (ad libitum fed rat) | ThT pH 4.0 lag time (physical stability in fibrillogenesis assay) ([1]; pH 4.0) [h] | ThT pH 4.0 lag time ([1]; pH 4.0, ThT fibrillation assay) [h]
1 | CC[C@H](C)[C@H](NC(=O)[C@@H]1CCCN1C(=O)CNC(=O)[C@H](Cc1ccccc1)NC(=O)[C@H](CC(N)=O)NC(=O)[C@H](CCC(N)=O)NC(=O)[C@H](CO)NC(=O)[C@H](CO)NC(=O)[C@H](Cc1c[nH]cn1)NC(=O)[C@H](Cc1c[nH]cn1)NC(=O)[C@H](CC(C)C)NC(=O)[C@H](Cc1ccccc1)NC(=O)[C@H](CCC(=O)O)NC(=O)[C@H](C)NC(=O)[C@H](CC(C)C)NC(=O)[C@H](CCCNC(=N)N)NC(=O)[C@H](CCC(N)=O)NC(=O)[C@@H](NC(=O)[C@H](C)NC(=O)[C@@H]1CSSC[C@H](NC(=O)[C@H](CCCCN)NC(=O)CC[C@H](NC(=O)CCCCCCCCCCCCCCCCCCC(=O)O)C(=O)O)C(=O)N[C@@H](CC(N)=O)C(=O)N[C@@H]([C@@H](C)O)C(=O)N[C@@H](C)C(=O)N[C@@H]([C@@H](C)O)C(=O)N1)[C@@H](C)O)C(=O)N[C@@H](CC(C)C)C(=O)N1CCC[C@H]1C(=O)N1CCC[C@H]1C(=O)N[C@H](C(=O)N[C@@H](CC(N)=O)C(=O)N[C@H](C(=O)NCC(=O)N[C@@H](CO)C(=O)N[C@@H](Cc1c[nH]cn1)C(=O)N[C@H](C(=O)N[C@@H](Cc1ccc(O)cc1)C(N)=O)[C@@H](C)O)C(C)C)[C@@H](C)O [Example 117, N-alpha-[(S)-4-Carboxy-4-(19-carboxynonadecanoylamino)butyryl]-[Glu14,His17,Gln21,His35)-pramlintide] ({C20 diacid-γGlu}-KCNTATCATQRLAEFLHHSSQNFGPILPPTNVGSHTY-NH2; disulfide 2-7) | 50 | 35 | >45 | >45
2 | CC[C@H](C)[C@H](NC(=O)[C@@H]1CCCN1C(=O)CNC(=O)[C@H](Cc1ccccc1)NC(=O)[C@H](CC(N)=O)NC(=O)[C@H](CC(N)=O)NC(=O)[C@H](CO)NC(=O)[C@H](CO)NC(=O)[C@H](Cc1c[nH]cn1)NC(=O)[C@H](Cc1c[nH]cn1)NC(=O)[C@H](CC(C)C)NC(=O)[C@H](Cc1ccccc1)NC(=O)[C@H](CCC(=O)O)NC(=O)[C@H](C)NC(=O)[C@H](CC(C)C)NC(=O)[C@H](CCCNC(=N)N)NC(=O)[C@H](CCC(N)=O)NC(=O)[C@@H](NC(=O)[C@H](C)NC(=O)[C@@H]1CSSC[C@H](NC(=O)[C@H](CCCCN)NC(=O)CC[C@H](NC(=O)CCCCCCCCCCCCCCCCC(=O)O)C(=O)O)C(=O)N[C@@H](CC(N)=O)C(=O)N[C@@H]([C@@H](C)O)C(=O)N[C@@H](C)C(=O)N[C@@H]([C@@H](C)O)C(=O)N1)[C@@H](C)O)C(=O)N[C@@H](CC(C)C)C(=O)N1CCC[C@H]1C(=O)N1CCC[C@H]1C(=O)N[C@H](C(=O)N[C@@H](CC(N)=O)C(=O)N[C@H](C(=O)NCC(=O)N[C@@H](CO)C(=O)N[C@@H](CC(N)=O)C(=O)N[C@H](C(=O)N[C@@H](Cc1ccc(O)cc1)C(N)=O)[C@@H](C)O)C(C)C)[C@@H](C)O [Example 46, N-alpha-[(S)-4-Carboxy-4-(17-carboxyheptadecanoylamino)butyryl]-[Glu14,His17]-pramlintide] ({C18 diacid-γGlu}-KCNTATCATQRLAEFLHHSSNNFGPILPPTNVGSNTY-NH2; disulfide 2-7 (inferred); C-terminus assumed) | 54 | 27 |  | 
3 | CC[C@H](C)[C@H](NC(=O)[C@@H]1CCCN1C(=O)CNC(=O)[C@H](Cc1ccccc1)NC(=O)[C@H](CC(N)=O)NC(=O)[C@H](CC(N)=O)NC(=O)[C@H](CO)NC(=O)[C@H](CO)NC(=O)[C@H](Cc1c[nH]cn1)NC(=O)[C@H](Cc1c[nH]cn1)NC(=O)[C@H](CC(C)C)NC(=O)[C@H](Cc1ccccc1)NC(=O)[C@H](CCC(=O)O)NC(=O)[C@H](C)NC(=O)[C@H](CC(C)C)NC(=O)[C@H](CCCNC(=N)N)NC(=O)[C@H](CCC(N)=O)NC(=O)[C@@H](NC(=O)[C@H](C)NC(=O)[C@@H]1CSSC[C@H](NC(=O)[C@H](Cc2c[nH]cn2)NC(=O)CC[C@H](NC(=O)CCCCCCCCCCCCCCCCCCC(=O)O)C(=O)O)C(=O)N[C@@H](CC(N)=O)C(=O)N[C@@H]([C@@H](C)O)C(=O)N[C@@H](C)C(=O)N[C@@H]([C@@H](C)O)C(=O)N1)[C@@H](C)O)C(=O)N[C@@H](CC(C)C)C(=O)N1CCC[C@H]1C(=O)N1CCC[C@H]1C(=O)N[C@H](C(=O)N[C@@H](CC(N)=O)C(=O)N[C@H](C(=O)NCC(=O)N[C@@H](CO)C(=O)N[C@@H](CC(N)=O)C(=O)N[C@H](C(=O)N1CCC[C@H]1C(N)=O)[C@@H](C)O)C(C)C)[C@@H](C)O [Example 84, N-alpha-[(S)-4-Carboxy-4-(19-carboxynonadecanoylamino)butyryl]-[His1,Glu14,His17,Pro37]-pramlintide] ({C20 diacid-γGlu}-HCNTATCATQRLAEFLHHSSNNFGPILPPTNVGSNTP-NH2; disulfide 2-7 (inferred)) | 68 | 67 |  | 
4 | CC[C@H](C)[C@H](NC(=O)[C@@H]1CCCN1C(=O)CNC(=O)[C@H](Cc1ccccc1)NC(=O)[C@H](CC(N)=O)NC(=O)[C@H](CC(N)=O)NC(=O)[C@H](CO)NC(=O)[C@H](CO)NC(=O)[C@H](Cc1c[nH]cn1)NC(=O)[C@H](Cc1c[nH]cn1)NC(=O)[C@H](CC(C)C)NC(=O)[C@H](Cc1ccccc1)NC(=O)[C@H](CCC(=O)O)NC(=O)[C@H](C)NC(=O)[C@H](CC(C)C)NC(=O)[C@H](CCCNC(=N)N)NC(=O)[C@H](CCC(N)=O)NC(=O)[C@@H](NC(=O)[C@H](C)NC(=O)[C@@H]1CSSC[C@H](NC(=O)[C@H](Cc2c[nH]cn2)NC(=O)[C@H](Cc2c[nH]cn2)NC(=O)CC[C@H](NC(=O)CCCCCCCCCCCCCCCCCCC(=O)O)C(=O)O)C(=O)N[C@@H](CC(N)=O)C(=O)N[C@@H]([C@@H](C)O)C(=O)N[C@@H](C)C(=O)N[C@@H]([C@@H](C)O)C(=O)N1)[C@@H](C)O)C(=O)N[C@@H](CC(C)C)C(=O)N1CCC[C@H]1C(=O)N1CCC[C@H]1C(=O)N[C@H](C(=O)N[C@@H](CC(N)=O)C(=O)N[C@H](C(=O)NCC(=O)N[C@@H](CO)C(=O)N[C@@H](CC(N)=O)C(=O)N[C@H](C(=O)N[C@@H](Cc1ccc(O)cc1)C(N)=O)[C@@H](C)O)C(C)C)[C@@H](C)O [Example 17, N-alpha-[(S)-4-Carboxy-4-(19-carboxynonadecanoylamino)butyryl]-His-[His1,Glu14,His17]-pramlintide] ({C20 diacid-γGlu}-HHCNTATCATQRLAEFLHHSSNNFGPILPPTNVGSNTY-NH2; disulfide 3-8) | 40 | 22 |  | 
